# System: mAb ADK8
# Test: Epitope mapping of mAb ADK8 against AAV peptides
# Type: binding, mice
# Description: Monoclonal antibody ADK8 was generated by immunizing mice with AAV8 capsids. It is directed against the assembled AAV8 capsid (Sonntag et al, 2011). […] Moreover, the binding of AAV8 to the nuclear membrane as well as the nuclear entry were abrogated following neutralization by ADK8. […] ADK8 also cross-reacts with capsid proteins from other AAV serotypes such as AAV1, AAV3, AAV7 (Mietzsch et al, 2014) and was therefore chosen as an example from which general conclusions about the present invention can be drawn.
# As for the other antibodies (see examples above), several clusters were identified, delineating regions from which preferred peptides can be deduced. Most preferably, the peptides aligned below according to their binding strengths can be used for selective antibody depletion and detection as hereinabove.
row,Substance,peptide number according to binding strength
1,349 (DQYLYYL) [compound 349],19
2,321 (FGYSTPWGYF) [compound 321],09
3,348 (NGSQAVGRSSFYC) [compound 348],35
4,342 (VLGSAHQGCL) [compound 342],45
5,344 (GRSSFYC) [compound 344],14
6,341 (SAHQGCLPPF) [compound 341],39
7,328 (YFGYSTPWGY) [compound 328],28
8,317 (LQGPIWA) [compound 317],12
9,350 (PLIDQYLYYL) [compound 350],29
10,322 (GYSTPWGYFD) [compound 322],10
11,318 (RDVYLQG) [compound 318],20
12,339 (YVLGSAHQGC) [compound 339],37
13,325 (TPWGYFDFNRFHC) [compound 325],18
14,313 (VYLQGPI) [compound 313],02
15,329 (FGYSTPWGYFDFN) [compound 329],34
16,336 (GCLPPFP) [compound 336],13
17,330 (NWLPGPC) [compound 330],04
18,323 (YSTPWGYFDF) [compound 323],11
19,338 (LPYVLGSAHQGCL) [compound 338],32
20,347 (QAVGRSSFYCLEY) [compound 347],33
21,331 (WLPGPCY) [compound 331],15
22,340 (CLPPFPA) [compound 340],38
23,351 (IDQYLYY) [compound 351],36
24,345 (AVGRSSFYCLEYF) [compound 345],22
25,343 (PYVLGSAHQGCLP) [compound 343],46
26,315 (DVYLQGP) [compound 315],05
27,346 (AVGRSSFYCL) [compound 346],24
28,337 (VLGSAHQGCLPPF) [compound 337],27
